Test results from patent US20250109140A1, “5-[5-(PIPERIDIN-4-YL)THIENO[3,2-C]PYRAZOL-2-YL]INDAZOLE DERIVATIVES AND RELATED COMPOUNDS AS MODULATORS FOR SPLICING NUCLEIC ACIDS AND FOR THE TREATMENT OF PROLIFERATIVE DISEASES” (REMIX THERAPUTICS INC., priority 2022, published 2025).
Like-named read-outs stand apart in the source and are kept apart here.

Tests used:
MYB mRNA = test: Splicing RT-qPCR assay, MYB canonical (CJ) and alternative (AJ) junction mRNA; format: cell-based; conditions: Homo sapiens; for EC50: AC50 = 50% response in AJ mRNA increase
In short: (§1)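 Readout is RT-qPCR of CJ and AJ mRNA in lysates from A673 or K562 cells given an 11-point titration (top dose 10 uM final, DMSO at most 0.25%) for 24 hours. Data were normalized to GAPDH, GUSB or PPIA, then to DMSO.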

SMN2 mRNA = test: Splicing RT-qPCR gene panel, SMN2 canonical junction (CJ) mRNA; format: cell-based; conditions: Homo sapiens; Table 8; larger gene panel, decrease in CJ mRNA levels
In short: as §1

Target C mRNA = test: Splicing RT-qPCR gene panel, Target C canonical junction (CJ) mRNA; format: cell-based; conditions: Homo sapiens; Table 8; larger gene panel, decrease in CJ mRNA levels
In short: as §1

HiBiT-tagged HTT protein = test: HiBiT protein abundance assay, HTT (K562 HiBiT knock-in cells); format: cell-based, human; conditions: 24 hours treatment
In short: (§2)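 Luminescence from the Nano-Glo HiBiT lytic reagent measured tagged protein remaining in knock-in K562 cells after 24 h compound exposure (top dose 10 µM final, 3-fold, 10 points). Responses normalized between parental K562 and DMSO-treated lines were fit by four-parameter logistic to interpolate the 50% concentration.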

[1] = tested on: K562 (human chronic myelogenous leukemia) cells; test: Cell viability, Cell Titer Glo 2.0 assay, K562 cells; format: cell-based; conditions: 72 hours
In short: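 Luminescent Cell Titer Glo 2.0 readout after 72 h exposure (37° C, 5% CO2), medium-only wells as blank. Cells plated 500/well in IMDM with 10% FBS; test compounds diluted from DMSO series 1:100 into medium, 0.1% DMSO final.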

HTT mRNA = test: Splicing RT-qPCR assay, HTT canonical (CJ) and alternative (AJ) junction mRNA; format: cell-based; conditions: Homo sapiens; for EC50: AC50 = 50% response in AJ mRNA increase
In short: as §1

HiBiT-tagged MYB protein = test: HiBiT protein abundance assay, MYB (K562 HiBiT knock-in cells); format: cell-based, human; conditions: 24 hours treatment
In short: as §2

Target C = test: HiBiT protein abundance assay, Target C (K562 HiBiT knock-in cells); format: cell-based, human; conditions: 24 hours treatment
In short: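 The readout was Nano-Glo HiBiT lytic luminescence after 24 h compound exposure at 37 °C, in 10000 K562 knock-in cells/well. Compounds ran as 10-point, 3-fold series, top final […], ≤0.25% DMSO. Responses were scaled between parental K562 and DMSO-treated controls, and IC50 was interpolated at 50% from four-parameter logistic curves.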

[2] = Table 7, RT-qPCR, A673 or K562 cells, 24 hours treatment
[3] = Table 7, IC50 = 50% response in CJ mRNA decrease, RT-qPCR, A673 or K562 cells, 24 hours treatment, read-out: MYB CJ
[4] = Table 8, larger gene panel, decrease in CJ mRNA levels, read-out: MYB CJ IC50
[5] = Table 7, IC50 = 50% response in CJ mRNA decrease, RT-qPCR, A673 or K562 cells, 24 hours treatment, read-out: HTT CJ
[6] = Table 8, larger gene panel, decrease in CJ mRNA levels, read-out: HTT CJ IC50

Row | EC50 (MYB mRNA; [2]) [nM] | IC50 (MYB mRNA; [3]) [nM] | IC50 (MYB mRNA; [4]) [nM] | IC50 (SMN2 mRNA) [nM] | IC50 (Target C mRNA) [nM] | IC50 (HiBiT-tagged HTT protein) [nM] | IC50 [1] [nM] | EC50 (HTT mRNA; [2]) [nM] | IC50 (HTT mRNA; [5]) [nM] | IC50 (HTT mRNA; [6]) [nM] | IC50 (HiBiT-tagged MYB protein) [nM] | IC50 (Target C) [nM] | SMILES
1 | 1000 to 10000 | > 10000 | > 10000 | 1000 to 10000 | > 10000 | 1000 to 10000 | > 10000 | 1000 to 10000 | 1000 to 10000 | 1000 to 10000 | 1000 to 10000 | 1000 to 10000 | Cc1cc(-n2cc3nc(C4CCNCC4)sc3n2)cc2cn(C)nc12 [Compound 1106]
2 | 100 to 1000 | 100 to 1000 | 100 to 1000 | < 100 | 100 to 1000 | 100 to 1000 | 1000 to 10000 | 100 to 1000 | 100 to 1000 | 100 to 1000 | 1000 to 10000 | 100 to 1000 | Cn1cc2cc(-c3nc4cn(C5CCNCC5)nc4s3)c(O)c(F)c2n1 [Compound 1107]
3 | < 100 | < 100 | < 100 | < 100 | < 100 | 1000 to 10000 | 100 to 1000 | < 100 | < 100 | < 100 | < 100 | 1000 to 10000 | Cc1c(O)c(-c2nc3cn(C4CCNCC4)nc3s2)cc2cn(C)nc12 [Compound 1108, 2,7-dimethyl-5-(2-(piperidin-4-yl)-2H-pyrazolo[4,3-d]thiazol-5-yl)-2H-indazol-6-ol]
4 | 1000 to 10000 | > 10000 | > 10000 | 1000 to 10000 | > 10000 | 1000 to 10000 | > 10000 | 1000 to 10000 | 1000 to 10000 | 1000 to 10000 | 1000 to 10000 | 1000 to 10000 | Cn1cc2cc(-n3cc4nc(C5CCNCC5)sc4n3)cc(F)c2n1 [Compound 1109]
5 | 1000 to 10000 | 1000 to 10000 | 100 to 1000 | < 100 | 100 to 1000 | 100 to 1000 | 1000 to 10000 | 100 to 1000 | 100 to 1000 | < 100 | 1000 to 10000 | 1000 to 10000 | Cn1cc2cc(-c3nc4cn(C5CCNCC5)nc4s3)c(O)cc2n1 [Compound 1110]
